Laboratory results taken from patent US10576102B2, “KOC1-derived peptide and vaccine including same” (ONCOTHERAPY SCIENCE, INC., priority 2014, dated 2020).
“Also recorded” adds a separate entry of the source.

What was measured:
Format in all cases: cell-based, human
[1] = tested on: peptide-pulsed C1R-A33; assay: In vitro CTL induction, IFN-gamma ELISPOT assay (HLA-A*3303); conditions: CTLs induced with peptide-pulsed DCs from HLA-A*3303-positive volunteers, day 21, vs peptide-pulsed C1R-A33, compared with unpulsed control
Procedure: (§1) C1R (C1R-A33) that stably expresses HLA-A*3303 was used as a stimulator cell. A cDNA encoding the open-reading frame of HLA-A*3303 was amplified by PCR and cloned into an expression vector. C1R cells were transfected with the expression vector, and then selected using G418 (Invitrogen) for two weeks. The G418-selected cells were seeded into wells containing G418-added culture medium in a 96-well plate, and further cultured for 30 days. The exogenous HLA-A*3303 expression in C1R cells was verified by flow cytometric analysis.
(§2) Monocyte-derived dendritic cells (DCs) were used as the antigen-presenting cell to induce a cytotoxic T lymphocyte (CTL) response against peptides presented on human leukocyte antigens (HLAs). As described in the other sections, DCs were generated in vitro (Nakahara S et al., Cancer Res 2003, 63(14): 4112-8). Specifically, peripheral-blood mononuclear cells isolated from healthy volunteers (HLA-A*3303-positive) with the Ficoll-Paque plus solution (Pharmacia) were separated by attaching to plastic tissue culture dishes (Becton Dickinson) and concentrated as a monocyte fraction. The monocyte-concentrated population was cultured in the presence of 1000 IU/ml granulocyte macrophage colony-stimulating factor (R&D System) and 1000 IU/ml interleukin(IL)-4 (R&D System) in an AIM-V medium (Invitrogen) containing 2% heat-inactivated autologous serum (AS). After seven days of culturing, the cytokine-induced DCs were pulsed with 20 micro-g/ml each of the synthesized peptides in an AIM-V medium at 37 degrees C. for three hours in the presence of 3 micro-g/ml beta 2-microglobulin. The generated cells appeared to express on their cell surface DC-associated molecules such as CD80, CD83, CD86 and HLA class II (data not shown). Next, these peptide-pulsed DCs were inactivated by X-ray irradiation (20 Gy), and mixed in a 1:20 ratio with autologous CD8^+ T cells obtained by positive selection using the CD8 Positive Isolation Kit (Dynal). These culture products were seeded in a 48-well plate (Corning). Each well was made to contain 1.5×10^4 peptide-pulsed DCs, 3×10^5 CD8^+ T cells and 10 ng/ml IL-7 (R&D System) in 0.5 ml of the AIM-V/2% AS medium. Three days later, these culture products were added with a final concentration of 20 IU/ml IL-2 (CHIRON). On day 7 and day 14, T cells were further stimulated with peptide-pulsed autologous DCs. The DCs were prepared every time by the same method as above. On day 21, after the third peptide stimulation, CTLs were examined against the peptide-pulsed C1R-A33 cell by a human interferon (IFN)-gamma enzyme-linked immunospot (ELISPOT) assay (Tanaka H et al., Br J Cancer 2001, 84(1): 94-9; Umano Y et. al., Br J Cancer 2001, 84(8): 1052-7; Uchida N et al., Clin Cancer Res 2004, 10(24): 8577-86; Suda T et al., Cancer Sci 2006, 97(5): 411-9; Watanabe T et al., Cancer Sci 2005, 96(8): 498-506).
(§3) Specifically, peptide-pulsed C1R-A33 (1×10^4 cells/well) was prepared as the stimulator cell. The induced CTLs, i.e., CTL lines and CTL clones, were used as the responder cell. The IFN-gamma ELISPOT assay and IFN-gamma ELISA were performed according to the manufacturer's manual.

[2] = tested on: peptide-pulsed C1R-A01; assay: In vitro CTL induction, IFN-gamma ELISPOT assay (HLA-A*0101); conditions: CTLs induced with peptide-pulsed DCs from HLA-A*0101-positive volunteers, day 21, vs peptide-pulsed C1R-A01, compared with unpulsed control
Procedure: as §1, with “(C1R-A01)” for “(C1R-A33)”, “HLA-A*0101” for “HLA-A*3303”
as §2, with “(HLA-A*0101-positive)” for “(HLA-A*3303-positive)”, “2-microglobulin.” for “2-microglobulin. The generated cells appeared to express on their cell surface DC-associated molecules such as CD80, CD83, CD86 and HLA class II (data not shown).”, “CTL activities” for “CTLs”, “C1R-A01 cells” for “C1R-A33 cell by a human interferon (IFN)-gamma enzyme-linked immunospot (ELISPOT) assay”, “et” for “et.”
Specifically, peptide-pulsed C1R-A01 (1×10^4 cells/well) was prepared as the stimulator cell. The induced CTLs, i.e., CTL lines and CTL clones, were used as the responder cell. The IFN-gamma ELISPOT assay and IFN-gamma ELISA were performed according to the manufacturer's manual.

[3] = tested on: peptide-pulsed C1R-A33; assay: IFN-gamma ELISA of CTL lines and CTL clones (HLA-A*3303); conditions: for IFN-gamma production of CTL clones, ELISA: CTL clones by limiting dilution, peptide-pulsed C1R-A33; for IFN-gamma production of CTL lines, ELISA: target cells pulsed with the peptide vs not pulsed, C1R-A33
Procedure: CTLs were propagated in culture using methods similar to those disclosed by Riddell et al. (Walter E A et al., N Engl J Med 1995, 333(16): 1038-44; Riddell S R et al., Nat Med 1996, 2(2): 216-23). The CTLs were co-cultured in a total of 25 ml AIM-V medium containing 5% AS (AIM-V/5% AS) and 40 ng/ml anti-CD3 antibody with two types of Mitomycin C-treated human B lymphoblastoid cell lines at 5×10^6 cells/flask. One day after beginning of the culturing, 120 IU/ml IL-2 was added to the culture. On days 5, 8 and 11, a fresh AIM-V/5% AS medium containing 30 IU/ml IL-2 was added to the culture (Tanaka H et al., Br J Cancer 2001, 84(1): 94-9; Umano Y et al., Br J Cancer 2001, 84(8): 1052-7; Uchida N et al., Clin Cancer Res 2004, 10(24): 8577-86; Suda T et al., Cancer Sci 2006, 97(5): 411-9; Watanabe T et al., Cancer Sci 2005, 96(8): 498-506).
Dilution of CTLs was carried out to make 0.3, 1 and 3 cells/well in 96 round-bottomed microtiter plates (Nalge Nunc International). The CTLs were co-cultured with two types of Mitomycin C-treated human B lymphoblastoid cell lines at 1×10^4 cells/well in a total of 150 micro-1/well AIM-V/5% AS medium with 30 ng/ml anti-CD3 antibody and 125 IU/ml IL-2. Ten days later, IL-2 was added to the medium at 50 micro-1/well to reach a final concentration of 125 IU/ml. On day 14, the CTL activity was tested, and the CTL clones were propagated using the same method as described above (Uchida N et al., Clin Cancer Res 2004, 10(24): 8577-86; Suda T et al., Cancer Sci 2006, 97(5): 411-9; Watanabe T et al., Cancer Sci 2005, 96(8): 498-506).
as §3

Row | Sequence | peptide-specific CTL activity (IFN-gamma production), ELISPOT [1] | peptide-specific CTL activity (IFN-gamma production), ELISPOT [2] | further results
1 | ELTLYNPER (a peptide derived from KOC1) [SEQ ID NO: 63] | potent IFN-gamma production |  | 
2 | ETETVHLFI (a peptide derived from KOC1) [SEQ ID NO: 90] |  | potent IFN-gamma production | 
3 | FYACQVAQR (a peptide derived from KOC1) [SEQ ID NO: 61] | potent IFN-gamma production |  | IFN-gamma production of CTL clones, ELISA ([3]; listed as KOC1-A33-9-543): Potent IFN-gamma production; IFN-gamma production of CTL lines, ELISA [3]: potent IFN-gamma production
4 | FYACQVAQRK (a peptide derived from KOC1) [SEQ ID NO: 79] | potent IFN-gamma production |  | 
5 | ISPLQELTLY (a peptide derived from KOC1) [SEQ ID NO: 46] |  | potent IFN-gamma production | 
6 | LAHNNFVGR (a peptide derived from KOC1) [SEQ ID NO: 62] | potent IFN-gamma production |  | IFN-gamma production of CTL clones, ELISA ([3]; listed as KOC1-A33-9-282): Potent IFN-gamma production; IFN-gamma production of CTL lines, ELISA [3]: potent IFN-gamma production
7 | LVKTGYAFV (a peptide derived from KOC1) [SEQ ID NO: 74] | potent IFN-gamma production |  | 
8 | NNFVGRLIGK (a peptide derived from KOC1) [SEQ ID NO: 85] | potent IFN-gamma production |  | 
9 | QGQHIKQLSR (a peptide derived from KOC1) [SEQ ID NO: 80] | potent IFN-gamma production |  | 
10 | QSETETVHL (a peptide derived from KOC1) [SEQ ID NO: 92] |  | potent IFN-gamma production | 
11 | QSETETVHLF (a peptide derived from KOC1) [SEQ ID NO: 95] |  | potent IFN-gamma production | 
12 | SSAEVVVPR (a peptide derived from KOC1) [SEQ ID NO: 4] |  |  | peptide-specific CTL activity (IFN-gamma production), ELISPOT ([1]; listed as KOC1-A33-9-517): no specific IFN-gamma production; also recorded: specific IFN-gamma production was not observed
13 | VVKITGHFY (a peptide derived from KOC1) [SEQ ID NO: 13] |  |  | peptide-specific CTL activity (IFN-gamma production), ELISPOT ([2]; listed as KOC1-A01-9-536): no specific IFN-gamma production; also recorded: specific IFN-gamma production was not observed
14 | VVVKITGHFY (a peptide derived from KOC1) [SEQ ID NO: 41] |  | potent IFN-gamma production | 
